Source: patent publication US10988465B2, “CXCR4 inhibitors and uses thereof” (X4 Pharmaceuticals, Inc., priority 2016, dated 2021)

Columns and labels:
[1] = target: T1, Jurkat cells expressing CXCR4 (Homo sapiens, UniProt P61073); test: Chemokine (CXCL12-AF647) binding inhibition assay; conditions: CXCL12-AF647 25 ng/mL, read-out: IC50 CXCL-12 binding Jurkat
T1 construct: endogenous in cells; host or cells: Jurkat
Outline: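 Cells in HBSS, 20 mM HEPES, 0.2% BSA, pH 7.4, preincubated 15 min at room temperature with compound, then 25 ng/mL CXCL12-AF647 for 30 min. After washing and paraformaldehyde fixation, bound ligand read by flow cytometry; percent inhibition calculated from MFI relative to unlabeled and ligand-only controls.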

[2] = target: T2, CXCR-4 transfected U87 cell line (U87.CXCR4) (Homo sapiens, UniProt P61073); test: Intracellular CXCL-12-induced calcium mobilization assay (FLIPR); format: cell-based; conditions: U87.CXCR4 cells; CXCL-12 25-50 ng/mL; compound added 15 min before; read-out: IC50 CXCL-12 Ca^2+ flux U87.CXCR4+
T2 construct: expressed in transfected cells; host or cells: U87 (U87.CXCR4)
Outline: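 U87 cells stably expressing human CXCR4, loaded with Fluo-2 AM (4 μM final) for 45 min at 37 °C in HBSS/20 mM HEPES/0.2% BSA, pH 7.4. Calcium flux triggered by CXCL-12 (25-50 ng/mL) was followed by FLIPR fluorescence over time at 37 °C.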

in vitro = conditions: human, Caco-2, pH 7.4
Outline: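 Caco-2 monolayers, checked by TEER with Lucifer yellow as marker, were dosed with 10 μM compound in HBSS pH 7.4 in A-to-B and B-to-A directions. Incubation was 90 min at 37° C, in duplicate. Samples were quantified by LC-MS/MS and Papp calculated.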

T1 sequence (P61073 whole entry): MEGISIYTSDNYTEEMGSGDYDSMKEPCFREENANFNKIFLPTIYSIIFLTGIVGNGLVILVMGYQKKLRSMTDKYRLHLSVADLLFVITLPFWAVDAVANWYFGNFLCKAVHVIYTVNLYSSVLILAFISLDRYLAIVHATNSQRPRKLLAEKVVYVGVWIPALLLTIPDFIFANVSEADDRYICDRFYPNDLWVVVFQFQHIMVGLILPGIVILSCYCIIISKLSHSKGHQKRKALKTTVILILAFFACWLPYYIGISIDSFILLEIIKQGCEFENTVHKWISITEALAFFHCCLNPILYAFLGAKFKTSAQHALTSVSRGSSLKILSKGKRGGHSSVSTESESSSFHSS
T2 sequence (P61073 whole entry): as above

| SMILES | IC50 [1] [nM] | IC50 [2] [nM] | Papp A→B at 90 min, 10 μM (in vitro) [nm/s] | Papp B→A at 90 min, 10 μM (in vitro) [nm/s] | efflux ratio at 90 min, 10 μM (in vitro) |
| --- | --- | --- | --- | --- | --- |
| Cc1cccnc1[C@@H]1CCC[C@H](c2nc3ccccc3n2C2CCN(C)CC2)N1C [I-130] | 0.01 to 100 | 0.01 to 100 | 100 to 300 | 100 to 300 | 0.1 to 10 |
| Cc1cccnc1[C@@H]1CCC[C@H](c2nc3ccccc3n2C2CCN(C)CC2)N1 [I-131] | 0.01 to 100 | 100 to 1000 | 1 to 100 | 100 to 300 | 0.1 to 10 |
| CN1CCN(c2cccc3nc([C@H]4CCC[C@@H](c5ncccc5Cl)N4)[nH]c23)CC12CC2 [I-133] | 0.01 to 100 | ≥ 1000 | 100 to 300 | 100 to 300 | 0.1 to 10 |
| CN1CCC(n2c([C@H]3CCC[C@@H](c4ncccc4Cl)N3)nc3ccccc32)CC1 [I-135] | 0.01 to 100 | 0.01 to 100 | 100 to 300 | 100 to 300 | 0.1 to 10 |
| Cc1cccnc1[C@@H]1CCC[C@H](c2nc3cccc(N4CCNCC4)c3[nH]2)N1C [I-136] | 0.01 to 100 | 0.01 to 100 | 1 to 100 | 100 to 300 | 10 to 30 |
| Cc1c(Cl)ccnc1[C@@H]1CCC[C@H](c2nc3cccc(N4CCN(C)CC4)c3[nH]2)N1 [I-140] | 0.01 to 100 | 0.01 to 100 | 1 to 100 | 100 to 300 | 0.1 to 10 |
| Cc1cc(F)cnc1[C@@H]1CCC[C@H](c2nc3cccc(N4CCN(C)CC4)c3[nH]2)N1 [I-142] | 0.01 to 100 | 0.01 to 100 | 1 to 100 | 100 to 300 | 0.1 to 10 |
| CC(C)N1CCN(c2cccc3nc([C@H]4CCC[C@@H](c5ncccc5Cl)N4)[nH]c23)CC1 [I-148] | 0.01 to 100 | 0.01 to 100 | 100 to 300 | 100 to 300 | 0.1 to 10 |
| CCN1CCN(c2cccc3nc([C@H]4CCC[C@@H](c5ncccc5Cl)N4)[nH]c23)CC1 [I-149] | 0.01 to 100 | 0.01 to 100 | 100 to 300 | 100 to 300 | 0.1 to 10 |
| CN1[C@@H](c2nc3cccc(N4CCN5CCCC5C4)c3[nH]2)CCC[C@H]1c1ncccc1Cl (some centres unmarked) [I-150] | 0.01 to 100 | 0.01 to 100 | 100 to 300 | 100 to 300 | 0.1 to 10 |
| Cc1cccnc1[C@@H]1CCC[C@H](c2nc3cccc(C4CCN(C)CC4)c3[nH]2)N1 [I-151] | 0.01 to 100 | 0.01 to 100 | 1 to 100 | 100 to 300 | 0.1 to 10 |
| CN(C)C1CCN(c2cccc3nc([C@H]4CCC[C@@H](c5ncccc5Cl)N4)[nH]c23)CC1 [I-153] | 0.01 to 100 | 0.01 to 100 | 1 to 100 | 100 to 300 | 0.1 to 10 |
| Cc1cccnc1[C@@H]1CCC[C@H](c2nc3ccccc3n2CCCN(C)C)N1 [I-155] | 0.01 to 100 | ≥ 1000 | 1 to 100 | > 300 | 0.1 to 10 |
| Cc1cccnc1[C@@H]1CCC[C@H](c2nc3ccccc3n2CCC#N)N1 [I-159] | ≥ 1000 | ≥ 1000 | 100 to 300 | 100 to 300 | 0.1 to 10 |
| Cc1cccnc1[C@@H]1CCC[C@H](c2nc3ccccc3n2CCC#N)N1C [I-160] | 100 to 1000 | ≥ 1000 | > 300 | > 300 | 0.1 to 10 |
| Cc1cccnc1[C@@H]1CCC[C@H](c2nc3ccccc3n2Cc2ccccc2-n2cccn2)N1 [I-161] | 100 to 1000 | ≥ 1000 | > 300 | > 300 | 0.1 to 10 |
| Cc1cccnc1[C@@H]1CCC[C@H](c2nc3ccccc3[nH]2)N1CCc1cn2ccccc2n1 [I-164] | 0.01 to 100 | 0.01 to 100 | 1 to 100 | 100 to 300 | 0.1 to 10 |
| Cc1cccnc1[C@@H]1CCC[C@H](c2ncc[nH]2)N1Cc1ccccc1-n1cccn1 [I-166] | 100 to 1000 | ≥ 1000 | 100 to 300 | 100 to 300 | 0.1 to 10 |
| Cc1cccnc1[C@@H]1CCC[C@H](c2nccn2Cc2ccccc2-n2cccn2)N1 [I-167] | ≥ 1000 | ≥ 1000 | > 300 | > 300 | 0.1 to 10 |
| Cc1cccnc1[C@@H]1CCC[C@H](c2nccn2C2CCN(C)CC2)N1 [I-171] | 0.01 to 100 | ≥ 1000 | 1 to 100 | 100 to 300 | 0.1 to 10 |
| CN1CCC(n2ccnc2[C@H]2CCC[C@@H](c3ncccc3Cl)N2)CC1 [I-172] | ≥ 1000 | ≥ 1000 | 100 to 300 | 100 to 300 | 0.1 to 10 |
| Cc1cccnc1[C@@H]1CCC[C@H](c2nccn2C2CCN(C3CC3)CC2)N1C [I-174] | 0.01 to 100 | 100 to 1000 | 100 to 300 | 100 to 300 | 0.1 to 10 |
| Cc1cccnc1[C@@H]1CCC[C@H](c2nccn2CC2CCN(C)CC2)N1 [I-175] | 0.01 to 100 | 100 to 1000 | 1 to 100 | 100 to 300 | 10 to 30 |
| Cc1cccnc1[C@@H]1CCC[C@H](c2nccn2CCn2cccn2)N1 [I-176] | ≥ 1000 | ≥ 1000 | 100 to 300 | > 300 | 0.1 to 10 |
| Cc1cccnc1[C@@H]1CCC[C@H](c2nccn2C2CCNCC2)N1C [I-179] | 0.01 to 100 | 100 to 1000 | 1 to 100 | 100 to 300 | 10 to 30 |

More lines, now with the values ahead:

| IC50 [1] [nM] | IC50 [2] [nM] | Papp A→B at 90 min, 10 μM (in vitro) [nm/s] | Papp B→A at 90 min, 10 μM (in vitro) [nm/s] | efflux ratio at 90 min, 10 μM (in vitro) | SMILES |
| --- | --- | --- | --- | --- | --- |
| 0.01 to 100 | 0.01 to 100 | 100 to 300 | 100 to 300 | 0.1 to 10 | CN1CCC(n2c([C@H]3CCC[C@@H](c4ncccc4Cl)N3C)nc3ccccc32)CC1 [I-134] |
| ≥ 1000 | ≥ 1000 | 100 to 300 | 100 to 300 | 0.1 to 10 | Cc1cccnc1[C@@H]1CCC[C@H](c2nc3c(N4CCN(C)CC4)cccc3n2C)N1 [I-141] |
| 0.01 to 100 | 0.01 to 100 | 100 to 300 | 100 to 300 | 0.1 to 10 | Clc1cccnc1[C@@H]1CCC[C@H](c2nc3cccc(N4CCN(C5CC5)CC4)c3[nH]2)N1 [I-143] |
| 0.01 to 100 | 0.01 to 100 | 1 to 100 | 100 to 300 | 0.1 to 10 | CN1CCC(c2cccc3nc([C@H]4CCC[C@@H](c5ncccc5Cl)N4)[nH]c23)CC1 [I-152] |
| 0.01 to 100 | 100 to 1000 | 100 to 300 | 100 to 300 | 0.1 to 10 | CN1CCC(n2c([C@H]3CCC[C@@H](c4ccccn4)N3)nc3ccccc32)CC1 [I-154] |
| ≥ 1000 | ≥ 1000 | 100 to 300 | 100 to 300 | 0.1 to 10 | COCCCn1c([C@H]2CCC[C@@H](c3ncccc3C)N2)nc2ccccc21 [I-158] |
| 100 to 1000 | ≥ 1000 | 100 to 300 | 100 to 300 | 0.1 to 10 | Cc1cccnc1[C@@H]1CCC[C@H](c2nc3cccc(N4CCN(c5ccccn5)CC4)c3[nH]2)N1 [I-162] |
| 0.01 to 100 | 100 to 1000 | 1 to 100 | 100 to 300 | 0.1 to 10 | Cc1cccnc1[C@@H]1CCC[C@H](c2nccn2CCCN(C)C)N1C [I-165, N,N-dimethyl-3-(2-((2R,6S)-1-methyl-6-(3-methylpyridin-2-yl)piperidin-2-yl)-1H-imidazol-1-yl)propan-1-amine] |
| 0.01 to 100 | 0.01 to 100 | 1 to 100 | 100 to 300 | 0.1 to 10 | Cc1cccnc1[C@@H]1CCC[C@H](c2nccn2C2CCN(C)CC2)N1C [I-168] |
| 0.01 to 100 | 100 to 1000 | 1 to 100 | > 300 | 0.1 to 10 | CN(C)CCCn1ccnc1[C@H]1CCC[C@@H](c2ncccc2Cl)N1C [I-169] |
| ≥ 1000 | ≥ 1000 | 100 to 300 | 100 to 300 | 0.1 to 10 | Cc1cc(F)cnc1[C@@H]1CCC[C@H](c2nccn2C2CCN(C)CC2)N1 [I-173] |
| ≥ 1000 | ≥ 1000 | 100 to 300 | 100 to 300 | 0.1 to 10 | Cc1cccnc1[C@@H]1CCC[C@H](c2nccn2CCc2ccccn2)N1 [I-177] |
